Key:
adjuvant arthritis model = assay: Adjuvant Arthritis Test; type: in vivo, 7 week old female Lewis rats; design: concentration or dose not given beside the values; details: subcutaneous daily days 8-21; for Bone Destruction Inhibition Rate with respect to control group, Day 22: Day 22, soft X-ray score of left and right hind limbs; for Swelling Inhibition Rate with respect to Control Group, Day 21, Left / Swelling Inhibition Rate with respect to Control Group, Left (day 14 per footnote) / Swelling Inhibition Rate with respect to Control Group, Day 16, Left: left (adjuvant-injected) hind limb; for Swelling Inhibition Rate with respect to Control Group, Left (day 14 per footnote) / Swelling Inhibition Rate with respect to Control Group, Right (day 14 per footnote): day 14 (column head Day 16); for Swelling Inhibition Rate with respect to Control Group, Day 21, Right / Swelling Inhibition Rate with respect to Control Group, Right (day 14 per footnote) / Swelling Inhibition Rate with respect to Control Group, Day 16, Right: right hind limb
Method: Multiple arthritis resembling human chronic articular rheumatism occurs when tubercule bacillus adjuvant is injected into rats. The antiinflammatory, antirheumatic and bone metabolism improving action of compounds of the present invention were investigated according to the following procedure using this adjuvant arthritis model.
0.1 mg of dried non-viable Mycobacterium butyricum cells were suspended in 0.1 ml of liquid paraffin followed by injection into the skin of the left hind limb of 7 week old female Lewis rats. The compounds obtained in the Examples were dissolved in sterilized distilled water and administered subcutaneously every day for two weeks from the 8th to 21st days after injection of adjuvant. During that time, the volumes of the right and left hind limbs were measured and the swelling rate was calculated according to the following formula: [formula]
Moreover, the swelling inhibition rates were also determined according to the following formula, and those values are shown in Table 1. [formula]
Soft X-ray radiographs were taken of the left and right hind limbs of the animals following sacrifice on day 22. The degree of bone destruction at five locations in the left and right hind limbs was evaluated based on the soft X-ray radiographs scoring those results among 5 ranks. Moreover, the bone destruction inhibition rate was calculated using the following formula, and those values are shown in Table 1. [formula]
Those results that were significant at a level of significance of P<0.001 with respect to a control group administered only sterilized distilled water according to the Student's t-test and Chukey's multiple comparison method were indicated with three asterisks (***), those results that were significant at a level of significance of P<0.01 were indicated with two asterisks (**), and those significant at a level of significance of P<0.05 were indicated with one asterisk (*).
The swelling inhibition rates for Example 7 and Example 33 are the values for day 14 and day 21.

[1] = system: osteoclasts (mouse bone cells), resorption pit formation; assay: Bone resorption pit formation by mouse bone cells (osteoclasts) on ivory, active type-vitamin D3 stimulation; type: cell-based, ICR mice; details: 10 nM active type-vitamin D3, 4 days
Description: The balance between bone formation and bone destruction is disturbed during osteoporosis, with bone destruction considered to be accelerated. Bone destruction is believed to occur due to an increase in the activation and number of osteoclasts. Experiments have been conducted wherein bone resorption was induced with active type-vitanium D3 stimulation using mouse bone cells dispersed on ivory for the experimental model. The bone resorption inhibitory action of compounds of the present invention was measured using this model.
After isolating the femur and tibia from 10-15 day old ICR mice, the bone specimens were prepared into thin sections in α-MEM medium containing 5% fetal bovine serum to prepare an bone cells suspension containing marrow cells and bone matrix. Large fragments of bone were removed with nylon mesh. Viable total cells were counted with trypan blue exclusion test while osteoclasts were stained with tartaric acid-resistantacid phosphatase stain to prepare a cell suspension containing osteoclasts in a proportion of roughly 0.05-0.1%. The ivory was cut into thin sections having a thickness of 150 μm using a low-speed rotary diamond cutter. The thin sections were then punched to a size that matched the size of the wells of a 96 well plate. These ivory fragments were placed in a 96 well plate followed by addition of the cell suspension prepared above so that each well contained 500 osteoclasts. 10 nM active type-vitamin D3 was added as stimulant simultaneous to addition of the drugs of the present invention at concentrations of 10 μM and 100 μM. After culturing the cells for 4 days at 37° C. in an environment of 10% CO2, the resorption pits that formed on the ivory slices were stained with hematoxylin and counted by observing microscopically. The resorption pit formation inhibition rate was then calculated using the formula indicated below. [formula]
The results were statistically processed using the Student's t-test, and those results that were significant at a level of significance of P<0.05 with respect to an active type-vatanium D3 stimulation control group were indicated with one asterisk (*), while those results that were significant at a level of significance of P<0.01 were indicated with two asterisks (**).

[2] = system: active oxygen production by human neutrophils; assay: Release of active oxygen from fMLP-stimulated human neutrophils (CLA luminescence); type: cell-based; details: Neutrophil, 10 μM compound, fMLP stimulation, read-out: Active Oxygen Production Inhibition Rate
Description: Neutrophils are known to function in the body defense reactions by phagocytosis of foreign bodies to remove them and production of active oxygen and digestive enzymes. However, the active oxygen and digestive enzymes produced by neutrophils also damage normal tissue during chronic inflammations and so forth. Moreover, they are also considered to exacerbate the inflammation. The action of compounds of the present invention was therefore measured with respect to the release of active oxygen from human neutrophils.
50 ml of human blood were drawn from a vein using 3.8% sodium citrate as anticoagulant. Equal volumes of this blood and a physiological saline solution containing 2% dextran were mixed and allowed to stand undisturbed for 30 minutes at 37° C. after shaking several times. The upper layer was separated and layered onto an equal volume of Ficoll-Paque solution. After centrifuging for 30 minutes at 1400 rpm and 20° C., the supernatant was removed and the cells were resuspended with Hanks buffer. […] The maximum amount of light emitted was then determined by a luminometer taking advantage of the phenomenon in which this excited carbonyl form emits light at 380 nm in the process of transition to the ground state. The active oxygen production inhibition rate was then calculated using the formula indicated below. […]

[3] = system: IL-1 production by J774-1 mouse macrophage cells; assay: Action on IL-1 Production by Strain J774-1 Mouse Macrophage Cells (LPS stimulated); type: cell-based; details: 100 μM compound, LPS 1 μg/ml, 24 hours, read-out: IL-1 Production Inhibition Rate with respect to Control Group
Method: It is also known that these cells produce IL-1 when stimulated with LPS. The inhibitory action on IL-1 production of compounds of the present invention was measured according to the following procedure using this cell line.
The J774-1 cells were cultured in RPMI-1640 medium containing 10% fetal bovine serum and 50 μM 2-mercaptoethanol followed by adjusting the number of cells to 2×10^5 cells/ml. 1 ml aliquots of this cell suspension were then placed in the wells of a 24 well plate and cultured for 30 minutes. Following culturing, LPS was added to a final concentration of 1 μg/ml. At the same time, compounds obtained in Examples were dissolved in sterilized distilled water and added at a concentration of 100 μM. […]
The samples obtained above were serially diluted by a factor of 2 in a 96 well multiplate at a capacity of 50 μl. […] The thymus cells were then cultured for 72 hours and IL-1 activity was determined from the growth rate of the cells. […] Using the absorbance of the pigment produced by this reduction at 570 nm as the index, the dilution factor of the sample when growth of thymus cells is induced by 50% was calculated in terms of the number of units of that sample by taking the case of induction of maximum growth of T cells by human gene recombinant IL-1 to be 100% growth, and growth in the case of not adding IL-1 to be 0%. […]

| SMILES | Bone Destruction Inhibition Rate with respect to control group, Day 22 (adjuvant arthritis model) [%] | Swelling Inhibition Rate with respect to Control Group, Day 21, Left (adjuvant arthritis model) [%] | Swelling Inhibition Rate with respect to Control Group, Left (day 14 per footnote) (adjuvant arthritis model) [%] | Swelling Inhibition Rate with respect to Control Group, Day 21, Right (adjuvant arthritis model) [%] | Swelling Inhibition Rate with respect to Control Group, Right (day 14 per footnote) (adjuvant arthritis model) [%] | resorption pit formation Inhibition Rate with respect to Control Group ([1]; 10 μM compound) [%] | resorption pit formation Inhibition Rate with respect to Control Group ([1]; 100 μM compound) [%] | inhibition at 10 µM [2] [%] | inhibition at 100 µM [3] [%] | Swelling Inhibition Rate with respect to Control Group, Day 16, Left (adjuvant arthritis model) [%] | Swelling Inhibition Rate with respect to Control Group, Day 16, Right (adjuvant arthritis model) [%] |
| --- | --- | --- | --- | --- | --- | --- | --- | --- | --- | --- | --- |
| CSc1cccc(SC(P(=O)(O)O)P(=O)(O)O)c1 [Example 7, (3-methylthiophenyl)thiomethanediphosphonic Acid] | 43.7 | 72.7 | 48.6 | 24.2 | 15.0 |  |  |  |  |  |  |
| CSc1ccccc1SC(P(=O)(O)O)P(=O)(O)O [Example 9, (2-methylthiophenyl)thiomethanediphosphonic Acid] |  |  |  |  |  | 35.8 ± 27.0 | 77.8 ± 3.59 | 46.3 ± 0.81 |  |  |  |
| CC(C)Sc1ccc(SC(P(=O)(O)O)P(=O)(O)O)cc1 [Example 13, (4-isopropylthiophenyl)thiomethanediphosphonic Acid] | 62.5 | 91.8 |  | 28.7 |  | 54.6 ± 10.4 | 92.5 ± 0.61 |  | 38.6 | 76.9 | 16.8 |
| O=P(O)(O)C(Sc1ccc(Sc2ccccc2)cc1)P(=O)(O)O [Example 15, (4-phenylthiophenyl)thiomethanediphosphonic Acid] | 33.7 | 73.8 |  | 33.7 |  | 30.5 ± 22.9 | 74.1 ± 4.38 |  |  | 75.0 | 28.1 |
| CSc1ccc(C=C(P(=O)(O)O)P(=O)(O)O)cc1 [Example 28, 2-(4-methylthiophenyl)ethynilidene-1,1-diphosphonic acid] |  |  |  |  |  | -0.34 ± 10.1 | 67.8 ± 3.98 |  |  |  |  |
| CSc1ccc(CC(P(=O)(O)O)P(=O)(O)O)cc1 [Example 30, 2-(4-methylthiophenyl)ethane-1,1-diphosphonic acid] |  |  |  |  |  | 35.6 ± 11.3 | 87.0 ± 4.34 |  |  |  |  |
| CSc1ccc(SCCCC(O)(P(=O)(O)O)P(=O)(O)O)cc1 [Example 33, disodium 4-(4-methylthiophenyl)thio-1-hydroxy-butylidene-1,1-diphosphonate] | 77.1 | 138.0 | 115.0 | 66.1 | 63.5 |  |  |  |  |  |  |

Reference: patent publication US5527940A, “Methanediphosphonate derivative, its manufacturing process and its pharmaceutical applications” (Toray Industries, Inc., priority 1991, dated 1996)
